Laboratory results reported in PubChem BioAssay (NCI).
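Following 48 hours of exposure in 96-well plates, responses at five concentrations were used to interpolate endpoints linearly. At the GI50, growth is halved. Definition used: TGI = concentration required for complete inhibition of growth.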

Key:
Assay in all cases: NCI-60 cell line screen, 48 h
SNB-75 CNS = tested on: SNB-75 CNS
K-562 leukemia = tested on: K-562 leukemia
UO-31 renal = tested on: UO-31 renal
OVCAR-5 ovarian = tested on: OVCAR-5 ovarian
SNB-19 CNS = tested on: SNB-19 CNS
ACHN renal = tested on: ACHN renal
HOP-62 NSCLC = tested on: HOP-62 NSCLC
UACC-62 melanoma = tested on: UACC-62 melanoma
786-0 renal = tested on: 786-0 renal
HOP-92 NSCLC = tested on: HOP-92 NSCLC

Compound | GI50 (SNB-75 CNS) | TGI (SNB-75 CNS) | GI50 (K-562 leukemia) | TGI (K-562 leukemia) | GI50 (UO-31 renal) | TGI (UO-31 renal) | GI50 (OVCAR-5 ovarian) | TGI (OVCAR-5 ovarian) | GI50 (SNB-19 CNS) | TGI (SNB-19 CNS) | GI50 (ACHN renal) | TGI (ACHN renal) | GI50 (HOP-62 NSCLC) | TGI (HOP-62 NSCLC) | GI50 (UACC-62 melanoma) | TGI (UACC-62 melanoma) | GI50 (786-0 renal) | TGI (786-0 renal) | GI50 (HOP-92 NSCLC) | TGI (HOP-92 NSCLC)
CCOC(=O)Nc1cc(-c2ccc(C)c(NS(C)(=O)=O)c2)nn2c(C)nnc12 | 0.477 µM | 9.13 µM | 1.73 µM | > 100 µM | 0.697 µM | > 100 µM | 2.64 µM | 31.3 µM | 0.799 µM | > 100 µM | 2.64 µM | 60.7 µM | 1.89 µM | 20.5 µM | 0.445 µM | 18.5 µM | 2.64 µM | > 100 µM | – | –
CS(=O)(=O)c1ccc(-c2cnc(NCc3ccco3)n3cnnc23)cc1 | > 100 µM | > 100 µM | 72.6 µM | > 100 µM | 38.8 µM | > 100 µM | > 100 µM | > 100 µM | > 100 µM | > 100 µM | > 100 µM | > 100 µM | > 100 µM | > 100 µM | – | – | > 100 µM | > 100 µM | 21.4 µM | > 100 µM
Nc1nc(-c2ccc3ccccc3c2)cc(-c2cc(-c3ccc4ccccc4c3)nc(N)n2)n1 | – | – | – | > 100 µM | – | > 100 µM | – | > 100 µM | – | > 100 µM | – | > 100 µM | – | > 100 µM | – | > 100 µM | – | > 100 µM | – | > 100 µM
COC(=O)Cc1nn2c(nc1=O)sc1ccc3ccccc3c12 | – | 76.3 µM | – | > 100 µM | – | > 100 µM | – | > 100 µM | – | > 100 µM | – | > 100 µM | – | > 100 µM | – | – | – | > 100 µM | – | > 100 µM
CC/C(=C(/CC)c1ccc(O)cc1)c1ccc(O)cc1 | 2.2 µM | 6.48 µM | – | – | 6.38 µM | 21.6 µM | 14.1 µM | 30.1 µM | 10.6 µM | 25.5 µM | 6.07 µM | 18.3 µM | 4.89 µM | 20.9 µM | 3.89 µM | 16.8 µM | 5.59 µM | 18.6 µM | 5.1 µM | 17.2 µM
CN1c2ccccc2S(=O)(=O)n2c(COc3ccccc3)nnc21 | – | – | – | > 100 µM | – | > 100 µM | – | > 100 µM | – | > 100 µM | – | > 100 µM | – | > 100 µM | – | > 100 µM | – | > 100 µM | – | > 100 µM
CCOC(=O)Cn1c(=O)[nH]c(=O)c2[nH]cnc21 | – | > 100 µM | – | > 100 µM | – | > 100 µM | – | > 100 µM | – | > 100 µM | – | > 100 µM | – | > 100 µM | – | > 100 µM | – | > 100 µM | – | –
COc1ccc(C2NC3=C(CCCC3)N2)cc1 | – | > 100 µM | – | – | – | > 100 µM | – | > 100 µM | – | – | – | > 100 µM | – | > 100 µM | – | – | – | > 100 µM | – | > 100 µM
C1C[S][Ge]2([S]CCS1)[S]CCSCC[S]2 | 18.9 µM | 95 µM | > 100 µM | > 100 µM | > 100 µM | > 100 µM | – | – | – | – | > 100 µM | > 100 µM | > 100 µM | > 100 µM | > 100 µM | > 100 µM | > 100 µM | > 100 µM | > 100 µM | > 100 µM
COc1cc(CC(=O)c2cc3c(cc2-c2ccccc2)OCO3)cc(OC)c1OC | – | 35.8 µM | – | > 100 µM | – | > 100 µM | – | > 100 µM | – | > 100 µM | – | > 100 µM | – | > 100 µM | – | – | – | > 100 µM | – | 42 µM
O=[N+]([O-])c1cccc([I+]c2ccccc2)c1 | 6.56 µM | 20.8 µM | 3.26 µM | 32.1 µM | 8.71 µM | 85.5 µM | 17.7 µM | 38.4 µM | 13.4 µM | 26.5 µM | 19.6 µM | > 100 µM | 5.19 µM | 18.8 µM | – | – | 13 µM | 29.9 µM | – | –
Cc1nc2cc(Nc3nc(Nc4ccc(F)cc4)nc(N4CCCC4)n3)ccc2n1Cc1ccccc1 | 1.58 µM | 3.45 µM | – | – | 1.51 µM | 2.92 µM | 1.72 µM | 3.42 µM | 3.4 µM | 87.3 µM | 2.19 µM | 5.41 µM | 1.74 µM | 3.45 µM | 1.62 µM | 2.99 µM | 1.85 µM | 3.46 µM | 1.07 µM | 2.47 µM
